Key:
Assay in all cases: relative viability (nuclei count vs DMSO), 5 days (fraction); higher = more cells survive
Crenolanib + Pemetrexed = compound: CC1(COc2ccc3c(c2)ncn3-c2ccc3cccc(N4CCC(N)CC4)c3n2)COC1 [Crenolanib] + Nc1nc2[nH]cc(CCc3ccc(C(=O)N[C@@H](CCC(=O)O)C(=O)O)cc3)c2c(=O)[nH]1 [Pemetrexed] (partner 0.2 µM)
How it was run: (§1)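 Dosing by pin tool came one day after lung cancer cell lines were seeded in 1536-well plates, using either one drug or a fixed anchor-drug dose plus five library-drug doses (not always all listed) in √10 steps. After 5 days, nuclei were counted on 4× images. Relative viability is treated-well nuclei count divided by vehicle-well nuclei count, and values are medians of duplicate plates.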

Tivantinib + OSI-027 = compound: O=C1NC(=O)[C@@H](c2cn3c4c(cccc24)CCC3)[C@@H]1c1c[nH]c2ccccc12 [Tivantinib] + COc1cccc2cc(-c3nc([C@H]4CC[C@H](C(=O)O)CC4)n4ncnc(N)c34)[nH]c12 [OSI-027] (partner 0.5 µM)
How it was run: as §1

Tivantinib + Decitabine = compound: O=C1NC(=O)[C@@H](c2cn3c4c(cccc24)CCC3)[C@@H]1c1c[nH]c2ccccc12 [Tivantinib] + Nc1ncn([C@H]2C[C@H](O)[C@@H](CO)O2)c(=O)n1 [Decitabine] (partner 2 µM)
How it was run: as §1

Tivantinib + Olaparib = compound: O=C1NC(=O)[C@@H](c2cn3c4c(cccc24)CCC3)[C@@H]1c1c[nH]c2ccccc12 [Tivantinib] + O=C(c1cc(Cc2n[nH]c(=O)c3ccccc23)ccc1F)N1CCN(C(=O)C2CC2)CC1 [Olaparib] (partner 8 µM)
How it was run: as §1

| Cell Line | relative viability (Crenolanib + Pemetrexed; first compound 0.01 µM) | relative viability (Crenolanib + Pemetrexed; first compound 0.03162 µM) | relative viability (Crenolanib + Pemetrexed; first compound 0.1 µM) | relative viability (Crenolanib + Pemetrexed; first compound 0.3162 µM) | relative viability (Crenolanib + Pemetrexed; first compound 1 µM) | relative viability (Tivantinib + OSI-027; first compound 0.01 µM) | relative viability (Tivantinib + OSI-027; first compound 0.03162 µM) | relative viability (Tivantinib + OSI-027; first compound 0.1 µM) | relative viability (Tivantinib + OSI-027; first compound 0.3162 µM) | relative viability (Tivantinib + Decitabine; first compound 0.01 µM) | relative viability (Tivantinib + Decitabine; first compound 0.03162 µM) | relative viability (Tivantinib + Decitabine; first compound 0.1 µM) | relative viability (Tivantinib + Decitabine; first compound 0.3162 µM) | relative viability (Tivantinib + Olaparib; first compound 0.01 µM) | relative viability (Tivantinib + Olaparib; first compound 0.03162 µM) | relative viability (Tivantinib + Olaparib; first compound 0.1 µM) | relative viability (Tivantinib + Olaparib; first compound 0.3162 µM) |
| --- | --- | --- | --- | --- | --- | --- | --- | --- | --- | --- | --- | --- | --- | --- | --- | --- | --- |
| NCI-H596 | 0.462 | 0.481 | 0.47 | 0.513 | 0.507 | 0.619 | 0.62 | 0.821 | 0.734 | 1.12 | 1.07 | 1.01 | 1.12 | 0.734 | 0.661 | 0.655 | 0.6 |
| NCI-H1792 | 0.738 | 0.853 | 0.8 | 0.968 | 0.803 | 0.777 | 0.685 | 0.595 | 0.547 | 0.535 |  | 0.473 | 0.505 | 0.406 |  | 0.406 | 0.3 |
| NCI-H2085 |  | 0.88 | 0.878 | 0.936 | 0.949 | 0.773 | 0.582 | 0.851 | 0.412 | 0.534 | 0.556 | 0.554 | 0.551 | 0.825 | 0.817 | 0.718 | 0.778 |
| NCI-H2023 | 0.206 | 0.238 | 0.231 | 0.239 | 0.234 | 0.372 | 0.363 | 0.356 | 0.341 | 0.24 | 0.218 | 0.212 | 0.221 | 0.52 | 0.452 | 0.479 | 0.402 |

From the supplement of paper PMC10307832
